Columns and labels:
corn = test: Test B pre/postemergence corn; assay type: in vivo, Zea mays
Method in brief: (§1)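 Herbicidal effect was estimated by eye on a ten-point control scale after plants spent twelve to sixteen days in a greenhouse following soil or foliar treatment. Foliar sprays targeted plants at one to four leaves; all doses were formulated in a non-phytotoxic solvent with surfactant.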

bedstraw = test: Test B pre/postemergence bedstraw; assay type: in vivo, Galium aparine; details: Postemergence, Rate 250 g/ha; scale of 0 to 10, 0 is no effect, 10 is complete control
Method in brief: as §1

giant foxtail = test: Test B pre/postemergence giant foxtail; assay type: in vivo, Setaria faberii
Method in brief: as §1

rape = test: Test B pre/postemergence rape; assay type: in vivo, Brassica napus
Method in brief: as §1

bamyardgrass = test: Test B flood test barnyardgrass; assay type: in vivo, Echinochloa crus-galli
Method in brief: (§2)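 Read-out is a visual response score from 0 (no effect) to 10 (complete control), assigned by comparison with untreated controls. Treatment was applied at the 2-leaf stage, and plants stayed in the greenhouse for twelve to sixteen days before scoring.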

crabgrass = test: Test B pre/postemergence crabgrass; assay type: in vivo, Digitaria sanguinalis
Method in brief: as §1

pigweed = test: Test B pre/postemergence pigweed; assay type: in vivo, Amaranthus retroflexus
Method in brief: as §1

blackgrass = test: Test B pre/postemergence blackgrass; assay type: in vivo, Alopecurus myosuroides
Method in brief: as §1

rice = test: Test B flood test rice; assay type: in vivo, Oryza sativa
Method in brief: as §2

wheat = test: Test B pre/postemergence wheat; assay type: in vivo, Triticum aestivum
Method in brief: as §1

purple nutsedge = test: Test B pre/postemergence purple nutsedge; assay type: in vivo, Cyperus rotundus
Method in brief: as §1

surinam grass = test: Test B pre/postemergence surinam grass; assay type: in vivo, Brachiaria decumbens
Method in brief: as §1

sugar beet = test: Test B pre/postemergence sugar beet; assay type: in vivo, Beta vulgaris
Method in brief: as §1

morningglory = test: Test B pre/postemergence morningglory; assay type: in vivo, Ipomoea hederacea
Method in brief: as §1

smallflower flatsedge = test: Test B flood test smallflower flatsedge; assay type: in vivo, Cyperus difformis
Method in brief: as §2

wild oat = test: Test B pre/postemergence wild oat; assay type: in vivo, Avena fatua
Method in brief: as §1

[1] = Postemergence, Rate 62 g/ha, scale 0 to 10, 0 is no effect, 10 is complete control
[2] = Postemergence, Rate 125 g/ha, scale of 0 to 10 where 0 is no effect and 10 is complete control
[3] = Postemergence, Rate 250 g/ha, scale of 0 to 10, 0 is no effect, 10 is complete control
[4] = Preemergence, Rate 62 g/ha, scale of 0 to 10 where 0 is no effect and 10 is complete control
[5] = Preemergence, Rate 125 g/ha, scale of 0 to 10 where 0 is no effect and 10 is complete control
[6] = Preemergence, Rate 250 g/ha, scale 0 to 10 (0 no effect, 10 complete control)
[7] = Preemergence, Rate 500 g/ha, scale of 0 to 10 where 0 is no effect and 10 is complete control
[8] = Rate 500 g/ha, Postemergence, scale 0 to 10, 0 is no effect, 10 is complete control
[9] = Rate 62 g/ha, flood test species, Pre-emergence, visual evaluation after twelve to sixteen days
[10] = Rate 125 g/ha, under heading Pre-emergence, flood test species, visual evaluation after twelve to sixteen days
[11] = Rate 250 g/ha, Pre-emergence (flood test species), scale 0 to 10, 0 is no effect, 10 is complete control
[12] = Rate 500 g/ha, Pre-emergence section of Table B, 0 to 10 scale (0 no effect, 10 complete control)

## C#CC(C)n1c(=O)on(C(=O)N(c2ccc(Cl)cc2)C(C)C)c1=O (racemic) [Compound 658]
corn; [1]
  Plant response rating, Corn: 0
corn; [2]
  Corn plant response rating: 0
corn; [3]
  Corn plant response rating: 0
corn; [4]
  Corn plant response rating: 0
corn; [5]
  Corn plant response rating: 0
corn; [6]
  Plant response rating, Corn: 2
corn; [7]
  Plant response rating, Corn: 2
corn; [8]
  Corn plant response rating: 0
bedstraw
  Bedstraw plant response rating: 0
Giant foxtail; [1]
  Plant response rating, Giant foxtail: 0
Giant foxtail; [2]
  Giant foxtail plant response rating: 3
Giant foxtail; [3]
  Giant foxtail plant response rating: 7
Giant foxtail; [4]
  Giant foxtail plant response rating: 9
Giant foxtail; [5]
  Giant foxtail plant response rating: 9
Giant foxtail; [6]
  Plant response rating, Giant foxtail: 9
Giant foxtail; [7]
  Plant response rating, Giant foxtail: 10
Giant foxtail; [8]
  Giant foxtail plant response rating: 6
rape; [1]
  Plant response rating, Rape: 0
rape; [2]
  Rape plant response rating: 0
rape; [4]
  Rape plant response rating: 2
rape; [5]
  Rape plant response rating: 5
rape; [6]
  Plant response rating, Rape: 5
rape; [7]
  Plant response rating, Rape: 8
rape; [8]
  Rape plant response rating: 3
bamyardgrass; [9]
  Plant response rating, Barnyardgrass (0 to 10 scale, 0 is no effect, 10 is complete control): 0
bamyardgrass; [10]
  Barnyardgrass plant response rating (0 to 10 scale, 0 is no effect, 10 is complete control): 0
bamyardgrass; [11]
  Barnyardgrass plant response rating: 0
bamyardgrass; [12]
  Barnyardgrass plant response rating: 0
crabgrass; [1]
  Plant response rating, Crabgrass: 0
crabgrass; [2]
  Crabgrass plant response rating: 2
crabgrass; [3]
  Crabgrass plant response rating: 2
crabgrass; [4]
  Crabgrass plant response rating: 3
crabgrass; [5]
  Crabgrass plant response rating: 7
crabgrass; [6]
  Plant response rating, Crabgrass: 8
crabgrass; [7]
  Plant response rating, Crabgrass: 9
pigweed; [1]
  Plant response rating, Redroot pigweed: 6
pigweed; [2]
  Redroot pigweed plant response rating: 6
pigweed; [4]
  Redroot pigweed plant response rating: 2
pigweed; [5]
  Redroot pigweed plant response rating: 9
pigweed; [6]
  Plant response rating, Redroot pigweed: 9
pigweed; [7]
  Plant response rating, Redroot pigweed: 10
pigweed; [8]
  Redroot pigweed plant response rating: 7
blackgrass; [1]
  Plant response rating, Blackgrass: 0
blackgrass; [2]
  Blackgrass plant response rating: 3
blackgrass; [3]
  Blackgrass plant response rating: 6
blackgrass; [4]
  Blackgrass plant response rating: 3
blackgrass; [5]
  Blackgrass plant response rating: 7
blackgrass; [6]
  Plant response rating, Blackgrass: 7
blackgrass; [7]
  Plant response rating, Blackgrass: 7
blackgrass; [8]
  Blackgrass plant response rating: 7
rice; [9]
  Plant response rating, Rice (0 to 10 scale, 0 is no effect, 10 is complete control): 0
rice; [10]
  Rice plant response rating (0 to 10 scale, 0 is no effect, 10 is complete control): 0
rice; [11]
  Rice plant response rating: 0
rice; [12]
  Rice plant response rating: 0
wheat; [1]
  Plant response rating, Wheat: 0
wheat; [2]
  Wheat plant response rating: 0
wheat; [4]
  Wheat plant response rating: 0
wheat; [5]
  Wheat plant response rating: 0
wheat; [6]
  Plant response rating, Wheat: 0
wheat; [7]
  Plant response rating, Wheat: 3
wheat; [8]
  Wheat plant response rating: 0
Purple nutsedge; [1]
  Plant response rating, Nutsedge: 0
Purple nutsedge; [2]
  Nutsedge plant response rating: 0
Purple nutsedge; [4]
  Nutsedge plant response rating: 0
Purple nutsedge; [5]
  Nutsedge plant response rating: 0
Purple nutsedge; [6]
  Plant response rating, Nutsedge: 0
Purple nutsedge; [7]
  Plant response rating, Nutsedge: 2
Purple nutsedge; [8]
  Nutsedge plant response rating: 2
Surinam grass; [1]
  Plant response rating, B. signalgrass: 0
Surinam grass; [2]
  Plant response rating, B. signalgrass: 0
Surinam grass; [3]
  B. signalgrass plant response rating: 0
Surinam grass; [4]
  B. signalgrass plant response rating: 0
Surinam grass; [5]
  B. signalgrass plant response rating: 0
Surinam grass; [6]
  Plant response rating, B. signalgrass: 8
Surinam grass; [7]
  Plant response rating, B. signalgrass: 8
Surinam grass; [8]
  B. signalgrass plant response rating: 0
Sugar beet; [1]
  Plant response rating, Sugarbeets: 0
Sugar beet; [2]
  Sugarbeets plant response rating: 0
Sugar beet; [4]
  Sugarbeets plant response rating: 3
Sugar beet; [5]
  Sugarbeets plant response rating: 7
Sugar beet; [6]
  Plant response rating, Sugarbeets: 6
Sugar beet; [7]
  Plant response rating, Sugarbeets: 7
Sugar beet; [8]
  Sugarbeets plant response rating: 2
morningglory; [1]
  Plant response rating, Morningglory: 7
morningglory; [2]
  Morningglory plant response rating: 7
morningglory; [3]
  Morningglory plant response rating: 7
morningglory; [4]
  Morningglory plant response rating: 0
morningglory; [5]
  Morningglory plant response rating: 0
morningglory; [6]
  Plant response rating, Morningglory: 0
morningglory; [7]
  Plant response rating, Morningglory: 0
morningglory; [8]
  Morningglory plant response rating: 10
Smallflower flatsedge; [9]
  Plant response rating, S. Flatsedge (0 to 10 scale, 0 is no effect, 10 is complete control): 0
Smallflower flatsedge; [10]
  S. Flatsedge plant response rating (0 to 10 scale, 0 is no effect, 10 is complete control): 0
Smallflower flatsedge; [11]
  S. Flatsedge plant response rating: 0
Smallflower flatsedge; [12]
  S. Flatsedge plant response rating: 0
Wild oat; [1]
  Plant response rating, Wild oats: 1
Wild oat; [2]
  Wild oats plant response rating: 1
Wild oat; [4]
  Wild oats plant response rating: 0
Wild oat; [5]
  Wild oats plant response rating: 2
Wild oat; [6]
  Plant response rating, Wild oats: 3
Wild oat; [7]
  Plant response rating, Wild oats: 4
Wild oat; [8]
  Wild oats plant response rating: 2
